TGI data for 3 compounds are collected here from PubChem BioAssay (NCI).

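Compound exposure: 48 hours, 5 concentrations, 96-well plates. TGI is the concentration that stops growth completely.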 Bounds are passed on as bounds.

Some test systems named below: SNB-19 CNS; ACHN renal; HL-60(TB) leukemia; K-562 leukemia; EKVX NSCLC; HT29 colon; A498 renal; MCF7 breast; MDA-N; SK-MEL-28 melanoma; U251 CNS; SN12C renal; UACC-257 melanoma; HOP-62 NSCLC; SK-OV-3 ovarian; MALME-3M melanoma; HOP-92 NSCLC; HCC-2998 colon; BT-549 breast; SK-MEL-2 melanoma.
Test in all cases: growth of human tumour cells (NCI), 48 h

With `CCCCCCCCCCCCCCCC(=O)OCC(C[As](=O)(O)O)OC(=O)CCCCCCCCCCCCCCC` (stereo not given), the TGI with SNB-19 CNS, with ACHN renal, with HL-60(TB) leukemia, in the assay on K-562 leukemia, in the assay on EKVX NSCLC and with HT29 colon was over 100 µM throughout. Moreover, the TGI in the assay with A498 renal, in the assay on MCF7 breast, in the assay on MDA-N, in the assay with SK-MEL-28 melanoma, with U251 CNS and in the assay with SN12C renal was over 100 µM each time. In addition, the TGI in the assay with UACC-257 melanoma, with HOP-62 NSCLC, with SK-OV-3 ovarian, in the assay with MALME-3M melanoma, with HOP-92 NSCLC and in the assay with HCC-2998 colon was over 100 µM in each case. Further, the TGI in the assay with BT-549 breast and in the assay on SK-MEL-2 melanoma was over 100 µM each time.
Regarding `CCN1CCN(c2nc3ccccc3c3c2CCOc2ccccc2-3)CC1`, the TGI is over 75.1 µM in the assay on SNB-19 CNS; over 100 µM with ACHN renal; over 77.3 µM in the assay with HL-60(TB) leukemia; over 100 µM in the assay with K-562 leukemia; over 100 µM with EKVX NSCLC; over 51.5 µM in the assay with HT29 colon. Further, the TGI with A498 renal was over 57.4 µM; in the assay on MCF7 breast, over 56.5 µM; in the assay on MDA-N, over 55.8 µM; with SK-MEL-28 melanoma, 32.4 µM; in the assay with U251 CNS it was over 79.2 µM; in the assay with SN12C renal, over 84 µM. In addition, the TGI was 34.8 µM in the assay on UACC-257 melanoma; over 100 µM with HOP-62 NSCLC; over 70.7 µM in the assay with SK-OV-3 ovarian; 35.3 µM in the assay with MALME-3M melanoma; over 73.1 µM with HOP-92 NSCLC; 37.3 µM in the assay on HCC-2998 colon. Further, the TGI in the assay with BT-549 breast is over 100 µM; in the assay with SK-MEL-2 melanoma, over 67.4 µM.
Regarding `CC(=O)[C@@H](C)C(=O)N1C(=O)OC[C@@]12[C@@H]1CC[C@@H](C1)C2(C)C`, the TGI in the assay with SNB-19 CNS, in the assay with ACHN renal, in the assay with HL-60(TB) leukemia, in the assay on K-562 leukemia, in the assay with EKVX NSCLC and in the assay on HT29 colon was over 100 µM throughout. Also, the TGI with A498 renal, in the assay with MCF7 breast, in the assay with MDA-N, in the assay on SK-MEL-28 melanoma, in the assay on U251 CNS and in the assay on SN12C renal was over 100 µM in each case. Also, the TGI in the assay on UACC-257 melanoma, in the assay on HOP-62 NSCLC, in the assay on SK-OV-3 ovarian, with MALME-3M melanoma, in the assay with HOP-92 NSCLC and with HCC-2998 colon was over 100 µM throughout. For the same compound, the TGI in the assay with BT-549 breast and with SK-MEL-2 melanoma was over 100 µM throughout.
